This is an account of results in patent publication US8952024B2, “Herbicidal pyrimidone derivatives” (E I du Pont de Nemours and Company, priority 2009, dated 2015).

SMILES strings stand for the structures.

The subject of one assay is canarygrass (Phalaris minor). As to the kind of experiment: Test B postemergence plant response. It counts as in vivo. The conditions noted are these: Postemergence, 31 g ai/ha; 0 to 100 scale (0 no effect, 100 complete control). An outline of the steps: (§1)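 Visual ratings from 0 (no effect) to 100 (complete control), made against controls 13–15 days after treatment, kept in a greenhouse. Compounds were applied postemergence to potted plants at the 1- to 4-leaf stage (2–18 cm).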
Take `CCCn1c(-c2ccsc2)ncc(C(=O)C2=C(O)C3CCC(C3)C2=O)c1=O` (stereo not shown) [Compound 227]: the “Plant response rating, Canarygrass” value is listed as 0.

The assay is the same for the next values; noted with them: Postemergence, 62 g ai/ha; scale 0 to 100 (0 no effect, 100 complete control).
Regarding `CCCn1c(-c2ccsc2)ncc(C(=O)C2=C(O)C3CCC(C3)C2=O)c1=O` (stereo not shown) [Compound 227], the “Plant response rating, Canarygrass” value is given as 0.

The assay is the same for the next values; noted with them: Postemergence, 125 g ai/ha; scale 0 to 100 (0 no effect, 100 complete control).
Take `CCCn1c(-c2ccsc2)ncc(C(=O)C2=C(O)C3CCC(C3)C2=O)c1=O` (stereo not shown) [Compound 227]: the “Plant response rating, Canarygrass” value is given as 5.

The assay is the same for the next values; noted with them: Postemergence, 250 g ai/ha; scale 0 to 100 (0 no effect, 100 complete control); 13 to 15 days.
As to `CCCn1c(-c2ccsc2)ncc(C(=O)C2=C(O)C3CCC(C3)C2=O)c1=O` (stereo not shown) [Compound 227], the “Plant response rating, Canarygrass” value worked out at 10.

The test system of another assay is windgrass (Apera spica-venti). The assay can be described thus: Test B postemergence plant response. It counts as in vivo. The conditions noted are these: Postemergence, 31 g ai/ha; 0 to 100 scale (0 no effect, 100 complete control). An outline of the steps:
as §1
Turning to `CCCn1c(-c2ccsc2)ncc(C(=O)C2=C(O)C3CCC(C3)C2=O)c1=O` (stereo not shown) [Compound 227], the “Plant response rating, Windgrass” value is recorded as 0.

Still in this assay, the particulars now being: Postemergence, 62 g ai/ha; scale 0 to 100 (0 no effect, 100 complete control).
As to `CCCn1c(-c2ccsc2)ncc(C(=O)C2=C(O)C3CCC(C3)C2=O)c1=O` (stereo not shown) [Compound 227], the “Plant response rating, Windgrass” value was 30.

The same assay, now with this note: Postemergence, 250 g ai/ha; scale 0 to 100 (0 no effect, 100 complete control); 13 to 15 days.
For the compound `CCCn1c(-c2ccsc2)ncc(C(=O)C2=C(O)C3CCC(C3)C2=O)c1=O` (stereo not shown) [Compound 227], the “Plant response rating, Windgrass” value is recorded as 50.

The test system of a further assay is chickweed (Stellaria media). As to the kind of experiment: Test B postemergence plant response. As to conditions: Postemergence, 31 g ai/ha; 0 to 100 scale (0 no effect, 100 complete control). Format: in vivo. An outline of the steps: as §1
For the compound `CCCn1c(-c2ccsc2)ncc(C(=O)C2=C(O)C3CCC(C3)C2=O)c1=O` (stereo not shown) [Compound 227], the “Plant response rating, Chickweed” value was determined as 65.

The same assay, now with this note: Postemergence, 62 g ai/ha; scale 0 to 100 (0 no effect, 100 complete control).
With `CCCn1c(-c2ccsc2)ncc(C(=O)C2=C(O)C3CCC(C3)C2=O)c1=O` (stereo not shown) [Compound 227], the “Plant response rating, Chickweed” value came to 75.

The assay is the same for the next values; noted with them: Postemergence, 125 g ai/ha; scale 0 to 100 (0 no effect, 100 complete control).
In the case of `CCCn1c(-c2ccsc2)ncc(C(=O)C2=C(O)C3CCC(C3)C2=O)c1=O` (stereo not shown) [Compound 227], the “Plant response rating, Chickweed” value was 80.

The same assay, now with this note: Postemergence, 250 g ai/ha; scale 0 to 100 (0 no effect, 100 complete control); 13 to 15 days.
`CCCn1c(-c2ccsc2)ncc(C(=O)C2=C(O)C3CCC(C3)C2=O)c1=O` (stereo not shown) [Compound 227]: the “Plant response rating, Chickweed” value was 90.

The subject of another assay is velvetleaf (Abutilon theophrasti). As to the kind of experiment: Test B pre-/postemergence plant response. Format: in vivo. The conditions noted are these: Postemergence, 31 g ai/ha; 0 to 100 scale (0 no effect, 100 complete control). An outline of the steps:
(§2)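 Plants treated either at seeding (loam/sand soil) or postemergence at 2 to 18 cm height, using a surfactant-containing non-phytotoxic solvent formulation. Evaluation was visual after 13 to 15 days, 0 to 100 scale relative to controls.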
For `CCCn1c(-c2ccsc2)ncc(C(=O)C2=C(O)C3CCC(C3)C2=O)c1=O` (stereo not shown) [Compound 227], the “Plant response rating, Velvetleaf” value is reported as 80.

The same assay, now with this note: Postemergence, 62 g ai/ha; scale 0 to 100 (0 no effect, 100 complete control).
Take `CCCn1c(-c2ccsc2)ncc(C(=O)C2=C(O)C3CCC(C3)C2=O)c1=O` (stereo not shown) [Compound 227]: the “Plant response rating, Velvetleaf” value is recorded as 80.

Still in this assay, the particulars now being: Postemergence, 250 g ai/ha; scale 0 to 100 (0 no effect, 100 complete control); 13 to 15 days.
`CCCn1c(-c2ccsc2)ncc(C(=O)C2=C(O)C3CCC(C3)C2=O)c1=O` (stereo not shown) [Compound 227]: the “Plant response rating, Velvetleaf” value turned out to be 98.

In a further assay the test system is johnsongrass (Sorghum halepense). As to the kind of experiment: Test B pre-/postemergence plant response. It counts as in vivo. As to conditions: Postemergence, 31 g ai/ha; 0 to 100 scale (0 no effect, 100 complete control). An outline of the steps:
as §2
For the compound `CCCn1c(-c2ccsc2)ncc(C(=O)C2=C(O)C3CCC(C3)C2=O)c1=O` (stereo not shown) [Compound 227], the “Plant response rating, Johnsongrass” value came to 45.

The same assay, now with this note: Postemergence, 62 g ai/ha; scale 0 to 100 (0 no effect, 100 complete control).
In the case of `CCCn1c(-c2ccsc2)ncc(C(=O)C2=C(O)C3CCC(C3)C2=O)c1=O` (stereo not shown) [Compound 227], the “Plant response rating, Johnsongrass” value is 60.

Still in this assay, the particulars now being: Postemergence, 125 g ai/ha; scale 0 to 100 (0 no effect, 100 complete control).
For `CCCn1c(-c2ccsc2)ncc(C(=O)C2=C(O)C3CCC(C3)C2=O)c1=O` (stereo not shown) [Compound 227], the “Plant response rating, Johnsongrass” value came to 60.

Still in this assay, the particulars now being: Postemergence, 250 g ai/ha; scale 0 to 100 (0 no effect, 100 complete control); 13 to 15 days.
For `CCCn1c(-c2ccsc2)ncc(C(=O)C2=C(O)C3CCC(C3)C2=O)c1=O` (stereo not shown) [Compound 227], the “Plant response rating, Johnsongrass” value came to 65.

The next assay deals with cocklebur (Xanthium strumarium). As to the kind of experiment: Test B pre-/postemergence plant response. It counts as in vivo. As to conditions: Postemergence, 31 g ai/ha; 0 to 100 scale (0 no effect, 100 complete control). An outline of the steps:
as §2
`CCCn1c(-c2ccsc2)ncc(C(=O)C2=C(O)C3CCC(C3)C2=O)c1=O` (stereo not shown) [Compound 227]: the “Plant response rating, Cocklebur” value is reported as 75.

The same assay, now with this note: Postemergence, 62 g ai/ha; scale 0 to 100 (0 no effect, 100 complete control).
As to `CCCn1c(-c2ccsc2)ncc(C(=O)C2=C(O)C3CCC(C3)C2=O)c1=O` (stereo not shown) [Compound 227], the “Plant response rating, Cocklebur” value is listed as 80.

The same assay, now with this note: Postemergence, 125 g ai/ha; scale 0 to 100 (0 no effect, 100 complete control).
For `CCCn1c(-c2ccsc2)ncc(C(=O)C2=C(O)C3CCC(C3)C2=O)c1=O` (stereo not shown) [Compound 227], the “Plant response rating, Cocklebur” value is listed as 95.

The assay is the same for the next values; noted with them: Postemergence, 250 g ai/ha; scale 0 to 100 (0 no effect, 100 complete control); 13 to 15 days.
For the compound `CCCn1c(-c2ccsc2)ncc(C(=O)C2=C(O)C3CCC(C3)C2=O)c1=O` (stereo not shown) [Compound 227], the “Plant response rating, Cocklebur” value is 95.
